What was measured:
Format in all cases: cell-based, human
ceramide = test: Measurement of the ceramide level (diacylglycerol kinase assay) in ASMC
Procedure: FIGS. 4A-4D depict the effect of ApoCI, ApoCI-enriched HDL, and ApoCI-poor HDL on the level of ceramide in ASMC. Confluent ASMC were incubated with ApoCI (2.5 μg/mL) with time (FIG. 4A, upper left) or with ApoCI-enriched HDL (1 μg apoA-I/mL medium) or ApoCI-poor HDL (5 μg apoA-I/mL medium) (FIG. 4B, upper right) for 30 minutes. FIG. 4C: The cells were incubated with ApoCI alone ([…]) for 5 minutes or preincubated with GW4869 (20 μmol/L) for 30 minutes. After addition of ApoCI (2.5 μg/mL), incubation was continued for 6 hours, 12 hours, and 24 hours. After incubation, cells were harvested and the levels of ceramide determined using the diacylglycerol kinase assay. The level of phosphate was measured and the data (mean±SD) were expressed as percentage of the total ceramide present in untreated cells (vehicle DMSO). *P<0.05. In a separate experiment (FIG. 4D, right), confluent cells were grown on cover slips and pretreated with serum-free medium for 30 minutes. The cells were then incubated with vehicle DMSO alone (control), ApoCI (2.5 μg/ML), or ApoCI (2.5 μg/mL) plus the N-SMase inhibitor GW4869 (20 μmol/L) for 24 hours. The cells were then washed, treated with a primary anticeramide antibody, washed with phosphate-buffered saline, and treated with a fluorescein isothiocyanate-conjugated anti-mouse IgG (FIG. 4C, lower panel).
Cells were pelleted and extracted with chloroform-methanol-acetic acid 100:100:2 (v/v/v). Lipids in organic phase were dried in N2 atmosphere and re-extracted, and the organic phase was dried. Detergent solution (30 μl of 7.5%/n-octyl-β-glucopyranoside with 5 mM cardiolipin in 1 mM diethylenimine-pentaacetic acid) was added, and the samples were sonicated. Total inorganic phosphate level was measured employing the method of Bartlett et al. Bartlett, G R. (1959). J. Biol. Chem. 234, 449-458). Ceramide was measured using the sn-1, 2-diacylglycerolkinase-assay reagent system and labeling for 30 min with 1 mCi of [^32P] ATP in 10 μl of 5 mM ATP (Signorelli, P., and Hannun, Y. A. (2002) Meth. Enzymol. 345, 275-294). Diacylglycerol kinase was from Streptomyces species (Calbiochem, San Diego, Calif.). [^32P] ATP (specific activity 3000 Ci/mmol) was from New England Nuclear Company (Boston, Mass.). Ceramide-1-phosphate and diacylglycerol-1-phosphate were resolved by thin-layer chromatography on silica gel plates (Whatman, Clinton, N.J.), using a solvent composed of chloroform-acetone-methanol-acetic acid-water 10:4:3:2:1(v/v) and detected by autoradiography using an Instant Imager (Packard Canberra Company). Ceramide was expressed as pmol ceramide/nmol phosphate.

caspase-3 = test: Caspase-3 level, Western immunoblot, ASMC; conditions: compared with control medium; ApoCI and ApoCIII 2.5 μg/ml, ApoCI-enriched HDL 1 μg apoA-I/ml, ApoCI-poor HDL 5 μg apoA-I/ml
Procedure: After incubation with ApoCI (2.5 μg/ml medium), ApoCIII (2.5 μg/ml medium), apoC-1-enriched HDL (1 μg apoA-I/ml medium), or ApoCI-poor HDL (5 μg ApoA-I/ml medium) for 24 h and 48 h, the cells were subjected to extraction with a buffer (30 mM HEPES, pH 7.5, 10 mM KCl, 1.5 mM MgCl2, 5 mM DTI, 2 mM phenylmethylsulfonyl fluoride (PMSF), 1% Nonidet P-40, 0.5% sodium deoxycholate, 0.1% SDS, 2 μg/ml leupeptin, 2 μg/ml aprotinin, 0.5 μg/ml benzamidine, and 250 mM sucrose) on ice for 30 min. Next, the samples were centrifuged at 10,000×g at 4° C. The supernatant was utilized as a source of cytochrome c in Western immunoblot assay. The pellets were lysed in RIPA buffer (phosphate buffer saline, 1% Nonidet P-40, 0.5% sodium deoxycholate, 0.1% SDS, and cocktail of inhibitors described above). The samples were passed through a 21-gauge needle to shear the DNA. Next, 10 μl of PMSF (10 mg/ml) was added and incubation continued for 60 min on ice. The samples were centrifuged at 10,000-×g for 10 min at 4° C. The supernatants were used as a source of protein in Western immunoblot assay for determination of caspase activation. Proteins (100 μg) were separated using 4-15% SDS-polyacrylamide gel under denaturing conditions and electro transferred onto nitrocellulose. […]

caveolin = test: Western measurement of caveolin-I level in AoSMC; conditions: ApoCI-treated cells
Procedure: Confluent cultures of AoSMC were preincubated with serum-free medium for 30 min and then treated with ApoCI (2.5 μg/ml medium), HMS (58.8 μg apoA-I/ml medium and 6.2 μg ApoCI/ml medium), and C2-Ceramide (30 μM). At indicated time periods cells were harvested in PBS and pellets lysed in 10 mM HEPES buffer (pH 7.4) 5 mM EDTA, 0.25 mM EGTA, 50 mM NaF, 0.35 M sucrose, 0.1% Nonidet P-40 and protease inhibitors 2 μg/ml aprotinin, 10 μg/ml leupeptin, 5 μg/ml pepstatin, and 1 mM PMSF. Protein concentration was determined using BCA-kit (Pierce, Rockford, Ill.). 100 μg of protein was subjected to electrophoresis in denaturing conditions on 4-15% polyacrylamide gel and electro transferred onto nitrocellulose (BioRad, Rochester, N.Y.). After the transfer, membranes were blocked for 1 h at room temperature in TBS-T/5% milk. Western assay was performed using rabbit caveolin-I (1:1000), SR-BI (1:5000) or goat ABCA1 (1:1000) primary antibody (Santa Cruz Biotechnology, Santa Cruz, Calif.) and horseradish peroxidase-conjugated anti-rabbit or anti-goat antibody (Amersham Pharmacia Biotech, Piscataway, N.J.). Blots were developed using ECL^plus Western blotting detection reagents (Amersham Pharmacia Biotech) and were scanned by laser densitometry. The intensity of the signals were quantified with the ImageGuant program (Molecular Dynamic, Sunnyvale, Calif.).

Src kinase = test: Analysis of p53/p56 Lyn (Src) kinase expression in AoSMC; conditions: ApoCI-treated cells
Procedure: Confluent cultures of AoSMC were incubated with ApoCI (2.5 μg/ml medium), ApoCIII (2.5 μg/ml medium), ApoCI-enriched HDL (1 μg apoA-I/ml medium), or […] (5 μg apoA-I/ml medium). Cells were harvested in PBS at various time intervals and stored frozen in the presence of the protease inhibitor cocktail above. Western analysis for p53/p56 Lyn kinase was performed using primary anti-Lyn p53/p56 antibody (1:300) (Santa Cruz Biotechnology) and chemiluminescence (Amersham Pharmacia Biotech, Piscataway, N.J.).

Q: What does the source list for `O=C(/C=C/c1ccc(/C=C/C(=O)Nc2ccc(C3=NCCN3)cc2)cc1)Nc1ccc(C2=NCCN2)cc1` [GW4869]?
A: effect of GW4869 on ApoCI-induced ceramide production, 24 hours (ceramide; GW4869 20 μmol/L, 24 hours): reversed it to a high level; effect of GW4869 on cellular level of ceramide induced by ApoCI, 5 minutes and 6 hours (ceramide; GW4869 20 μmol/L, after 5 minutes and 6 hours of incubation): significantly decreased; effect of GW4869 on ApoCI-induced ceramide production, 12 hours (ceramide; GW4869 20 μmol/L, after 12 hours of incubation): completely inhibited

Q: With “ApoCIII: purified human ApoCIII purchased from Academy Bio-Medical Company, used as negative control” as the compound, how does the “stimulation of caspase-3 level/expression” value (caspase-3) read?
A: to a lesser extent than ApoCI-enriched HDL

Q: Which level of caveolin (caveolin) does the source give for “Apolipoprotein C-I (TPDVSSALDKLKEFGNTLEDKARELISRIKQSELSAKMREWFSETFQKVKEKLKIDS; UniProt P02654 27-83, looked up) [ApoCI, 6.6-kDa single-chain plasma protein of 57 amino acids; purified human ApoCI purchased from Academy Bio-Medical Company]” here?
A: did not alter

Q: What about the “stimulation of caspase-3 level/expression” value (caspase-3) of the same compound?
A: 4 fold

Q: And the “effect on Src kinase” value (Src kinase)?
A: stimulated

Q: And the “maximum increase in ceramide level by ApoCI” value (ceramide; ApoCI 2.5 μg/mL, by 5 minutes)?
A: 1.7 fold
